Structures are written as SMILES.
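For fold increase in cellular potency in this document: HepG2 cells exposed to a drug concentration series for 3 days, then counted with a hemocytometer, inhibition relative to untreated control cell number, IC50 obtained by curve fitting.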

One data set deals with GSDME. Put plainly: Western blot of GSDME activation. The note with it: HepG2 and SK-Hep1 cells. It counts as cell-based, human. The method, then: The whole-cell protein was extracted by RIPA lysis buffer contained with protease and phosphatase inhibitor cocktail (MCE, HY-K0010) from cells treated by indole analogues. Proteins were separated by sodium dodecyl sulfate-polyacrylamide gel electrophoresis (SDS-PAGE) gel, and then blotted onto polyvinylidene difluoride membrane (Millipore, IPVH00010). The membranes were incubated with the primary antibodies and the following horseradish peroxidase-conjugated (HRP) secondary antibodies. Next, membranes were washed and developed by ECL regent (Millipore, WBKLS0500).
As to `O=C(NCCCn1cc(/C=C2\S/C(=N\c3ccc(N4CCOCC4)cc3)N(Cc3ccc(F)cc3)C2=O)c2ccccc21)[C@@H]1CCCN1` [Tc4], the “GSDME activation / cleavage (western blotting)” value is given as “did not activate GSDME”. The same measure, in the same setting: to `CC[C@H](C)[C@H](N)C(=O)NCCCn1cc(/C=C2\SC(=O)N(Cc3ccc(F)cc3)C2=O)c2cc(Br)ccc21` [Tb7] belongs “did not activate GSDME”; to `NCCCn1cc(/C=C2\S/C(=N\c3ccc(N4CCOCC4)cc3)N(Cc3ccc(F)cc3)C2=O)c2ccccc21` [Tc1], “did not activate GSDME”.

The next data set concerns SK-Hep1 cells. Put plainly: Anti-tumor activity assay (IC50 value), cells counted after three days. The note with it: Homo sapiens, SK-HEP1, 72 h, read-out: IC50 SK-Hep1.
Method: (§1) For half maximal inhibitory concentrations (IC50) analysis, the hepatic carcinoma cells (HepG2, SK-Hep1 and PLC-PRF5) were seeded in 24-well plates respectively, then treated with drugs at concentration gradient for three days. The cells were counted with hemocytometer. […] A is the cell quantity of the control group and B is the cell quantity of the drug treated group. The cell inhibition rate was transformed using its logarithm. And the drug IC50 value were calculated by Graphpad Prsim 9 software with curve fitting of the drug concentration and log (cell inhibition rate).
For the compound `O=C(NCCCn1cc(/C=C2\S/C(=N\c3ccc(N4CCOCC4)cc3)N(Cc3ccc(F)cc3)C2=O)c2ccccc21)[C@@H]1CCCN1` [Tc4], the IC50 is 2.3 ± 0.14 µM. In the case of `COc1cc2nccc(Oc3ccc(NC(=O)C4(C(=O)Nc5ccc(F)cc5)CC4)cc3)c2cc1OC` [Cabozantinib, reference compound], the IC50 turned out to be 2.26 ± 0.32 µM. As to `CC[C@H](C)[C@H](N)C(=O)NCCCn1cc(/C=C2\SC(=O)N(Cc3ccc(F)cc3)C2=O)c2cc(Br)ccc21` [Tb7], the IC50 came out at 2.21 ± 0.17 µM. As for `CNC(=O)c1cc(Oc2ccc(NC(=O)Nc3ccc(Cl)c(C(F)(F)F)c3)c(F)c2)ccn1` [Regorafenib, reference compound], the concentration for half-maximal inhibition (IC50) was determined as 4.23 ± 0.64 µM. On the same count and under the same terms, in the case of `Nc1ccn([C@@H]2O[C@H](CO)[C@@H](O)C2(F)F)c(=O)n1` [Gemcitabine, reference compound] it was 0.04 ± 0.003 µM; in that of `COc1cc2nccc(Oc3ccc(NC(=O)NC4CC4)c(Cl)c3)c2cc1C(N)=O` [Lenvatinib, reference compound], 12.4 ± 1.32 µM; in that of `NCCCn1cc(/C=C2\S/C(=N\c3ccc(N4CCOCC4)cc3)N(Cc3ccc(F)cc3)C2=O)c2ccccc21` [Tc1], 2.87 ± 0.61 µM.

Staying with this data set, now noted: read-out: IC50 SK-Hep1; 72 h.
Consider `CNC(=O)c1cc(Oc2ccc(NC(=O)Nc3ccc(Cl)c(C(F)(F)F)c3)cc2)ccn1` [Sorafenib, reference compound], for which the IC50 turned out to be 4.4 µM.

The next data set deals with HepG2 and SK-Hep1 cells. Put plainly: LDH release assay. The class given is cell-based, human. The note with it: 0-4 μM, three days. The protocol:
The hepatic carcinoma cells were seeded in 96-well plates and treated with indole analogues for three days. Of note, the compounds were added into DMEM medium supplemented with 1% FBS. The cellular supernatant was collected for LDH release detection by using LDH cytotoxicity assay kit (Beyotime, C0016). Statistical analysis was combined with the cell viability data tested by WST-1 cell proliferation and cytotoxicity assay kit (Beyotime, C0035).
In the case of `O=C(NCCCn1cc(/C=C2\S/C(=N\c3ccc(N4CCOCC4)cc3)N(Cc3ccc(F)cc3)C2=O)c2ccccc21)[C@@H]1CCCN1` [Tc4], the LDH release levels entry was “increased”. `CC[C@H](C)[C@H](N)C(=O)NCCCn1cc(/C=C2\SC(=O)N(Cc3ccc(F)cc3)C2=O)c2cc(Br)ccc21` [Tb7]: the LDH release levels result is on record as “increased”. On to `NCCCn1cc(/C=C2\S/C(=N\c3ccc(N4CCOCC4)cc3)N(Cc3ccc(F)cc3)C2=O)c2ccccc21` [Tc1], for which the LDH release levels result is reported as “increased”.

Tested on in the next data set: not listed separately
Put plainly: Liver microsome metabolic stability assay. The settings on record: human, microsomes. The protocol: The reaction media contained liver microsomes (0.5 mg/mL), 1.0 mM β-nicotinamide adenine dinucleotide phosphate (β-NADPH), 3 mM MgCl2 phosphate buffer. Microsomal suspensions were pre-incubated with Tc3 for 3 min at 37℃. The reaction was initiated with the addition of β-NADPH and samples were collected at 0, 5, 15, 30 and 60 min. The negative control was excluded of β-NADPH. Midazolam was incubated similarly as a positive control substrate. At each time point, an aliquot was mixed acetonitrile. Samples were centrifuged and then supernatant was mixed with ultrapure water for LC-MS/MS analysis.
`Cc1ncc2n1-c1ccc(Cl)cc1C(c1ccccc1F)=NC2` [midazolam, reference compound] had a microsomal CLint at 1 μM of 1200 µL/min/mg.

The same data set, now with this note: mouse, microsomes.
Regarding `Cc1ncc2n1-c1ccc(Cl)cc1C(c1ccccc1F)=NC2` [midazolam, reference compound], the half-life at 1 μM is 2.72 min and the microsomal CLint at 1 μM worked out at 1270 µL/min/mg.

The subject of a further data set is PLC-PRF5 cells. Put plainly: Anti-tumor activity assay (IC50 value), cells counted after three days. The class given is cell-based. The note with it: Homo sapiens, PLC-PRF-5, 72 h. The text has this: The cells were counted with hemocytometer.
With `O=C(NCCCn1cc(/C=C2\S/C(=N\c3ccc(N4CCOCC4)cc3)N(Cc3ccc(F)cc3)C2=O)c2ccccc21)[C@@H]1CCCN1` [Tc4], half-maximal inhibition (IC50) required 2.92 ± 0.32 µM. `CC[C@H](C)[C@H](N)C(=O)NCCCn1cc(/C=C2\SC(=O)N(Cc3ccc(F)cc3)C2=O)c2cc(Br)ccc21` [Tb7] came in with an IC50 of 1.26 ± 0.31 µM.

Compound `NCCCn1cc(/C=C2\S/C(=N\c3ccc(N4CCOCC4)cc3)N(Cc3ccc(F)cc3)C2=O)c2ccccc21` [Tc1] yielded an IC50 of 2.71 ± 0.12 µM.

The next data set deals with HepG2 cells. The description is as above. The note with it: HepG2, compared to T1.
Method: as §1
For `O=C(NCCCn1cc(/C=C2\S/C(=N\c3ccc(N4CCOCC4)cc3)N(Cc3ccc(F)cc3)C2=O)c2ccccc21)[C@@H]1CCCN1` [Tc4], the “fold increase in cellular potency” value was ~6.5 fold. Regarding `CC[C@H](C)[C@H](N)C(=O)NCCCn1cc(/C=C2\SC(=O)N(Cc3ccc(F)cc3)C2=O)c2cc(Br)ccc21` [Tb7], the “fold increase in cellular potency” value is recorded as ~9 fold.

For `CC[C@H](C)[C@H](N)C(=O)NCCCn1cc(/C=C2\S/C(=N\c3ccc(N4CCOCC4)cc3)N(Cc3ccc(F)cc3)C2=O)c2ccccc21` [Tc5], the “fold increase in cellular potency” value was ~ 3 fold.

On to `NCCCn1cc(/C=C2\S/C(=N\c3ccc(N4CCOCC4)cc3)N(Cc3ccc(F)cc3)C2=O)c2ccccc21` [Tc1], for which the “fold increase in cellular potency” value was ~ 3 fold. `CSCC[C@H](N)C(=O)NCCCn1cc(/C=C2\S/C(=N\c3ccc(N4CCOCC4)cc3)N(Cc3ccc(F)cc3)C2=O)c2ccccc21` [Tc2]: the “fold increase in cellular potency” value is ~2 fold.

Still in this data set, the particulars now being: Homo sapiens, HepG2, 72 h, read-out: IC50 HepG2.
With `CC(C)[C@H](N)C(=O)NCCCn1cc(/C=C2\S/C(=N\c3ccccc3)N(Cc3ccc(F)cc3)C2=O)c2ccccc21` [Tc6], the IC50 was > 100 µM. Same read-out and setting: to `O=C(NCCCn1cc(/C=C2\S/C(=N\c3ccc(N4CCOCC4)cc3)N(Cc3ccc(F)cc3)C2=O)c2ccccc21)[C@@H]1CCCN1` [Tc4] belongs 2.46 µM. Regarding `C[C@H](N)C(=O)NCCCn1cc(/C=C2\SC(=O)N(Cc3ccc(F)cc3)C2=O)c2ccccc21` [Tb1], the IC50 turned out to be 7.97 ± 0.3 µM.

As to `COc1cc2nccc(Oc3ccc(NC(=O)C4(C(=O)Nc5ccc(F)cc5)CC4)cc3)c2cc1OC` [Cabozantinib, reference compound], the IC50 came to 2.64 ± 0.85 µM. Still for that read-out and setting: to `CC[C@H](C)[C@H](N)C(=O)NCCCn1cc(/C=C2\SC(=O)N(Cc3ccc(F)cc3)C2=O)c2cc(Br)ccc21` [Tb7] belongs 1.79 µM; to `NCCCn1cc(/C=C2\SC(=O)N(Cc3ccc(F)cc3)C2=O)c2ccccc21` [Compound T1], 15.9 µM. With `CC(C)[C@H](N)C(=O)NCCCn1cc(/C=C2\SC(=O)N(Cc3ccc(F)cc3)C2=O)c2ccccc21` [Tb2], the IC50 came out at 6.74 ± 0.8 µM.

As for `COc1ccc(/N=C2\S/C(=C\c3cn(CCCNC(=O)[C@@H](N)C(C)C)c4ccccc34)C(=O)N2Cc2ccc(F)cc2)cc1` [Tc10], the IC50 is > 100 µM.

`O=C(NCCCn1cc(/C=C2\SC(=O)N(Cc3ccc(F)cc3)C2=O)c2ccccc21)C1CCCC1` [Ta1]: the IC50 was 27.7 µM.

`CNC(=O)c1cc(Oc2ccc(NC(=O)Nc3ccc(Cl)c(C(F)(F)F)c3)c(F)c2)ccn1` [Regorafenib, reference compound]: the IC50 was determined as 4.21 ± 0.33 µM. Still for that read-out and setting: to `CC(C)[C@H](N)C(=O)NCCCn1cc(/C=C2\S/C(=N\c3ccc(Cl)cc3)N(Cc3ccc(F)cc3)C2=O)c2ccccc21` [Tc8] belongs 15.2 µM.

Turning to `CC(C)C(=O)NCCCn1cc(/C=C2\SC(=O)N(Cc3ccc(F)cc3)C2=O)c2ccccc21` [Ta3], the half-maximal inhibitory concentration (IC50) was > 50 µM. As to `CC(C)[C@H](N)C(=O)NCCCn1cc(/C=C2\S/C(=N\c3ccc(F)cc3)N(Cc3ccc(F)cc3)C2=O)c2ccccc21` [Tc7], the IC50 came out at 12.4 µM.

For `CC(C)[C@H](N)C(=O)NCCCn1cc(/C=C2\S/C(=N\c3ccc(C(F)(F)F)cc3)N(Cc3ccc(F)cc3)C2=O)c2ccccc21` [Tc9], the IC50 was 10.8 µM. Still for that read-out and setting: in the case of `COc1ccc2c(c1)c(/C=C1\SC(=O)N(Cc3ccc(F)cc3)C1=O)cn2CCCNC(=O)[C@@H]1CCCN1` [Tb9] it was 7.47 µM; in that of `O=C(NCCCn1cc(/C=C2\SC(=O)N(Cc3ccc(F)cc3)C2=O)c2ccccc21)[C@@H]1CCCN1` [Tb3], 6.2 µM. As for `Nc1ccn([C@@H]2O[C@H](CO)[C@@H](O)C2(F)F)c(=O)n1` [Gemcitabine, reference compound], the IC50 came out at 0.14 ± 0.01 µM.

Consider `CSCC[C@H](N)C(=O)NCCCn1cc(/C=C2\SC(=O)N(Cc3ccc(F)cc3)C2=O)c2cc(Br)ccc21` [Tb6], for which the IC50 worked out at 6.31 ± 0.35 µM. On to `CCCC/N=C1\S/C(=C\c2cn(CCCNC(=O)[C@@H](N)C(C)C)c3ccccc23)C(=O)N1Cc1ccc(F)cc1` [Tc12], for which the 50% inhibitory concentration (IC50) was 25 µM. In the case of `N[C@@H](Cc1ccc(O)cc1)C(=O)NCCCn1cc(/C=C2\SC(=O)N(Cc3ccc(F)cc3)C2=O)c2cc(Br)ccc21` [Tb5], the IC50 is 11.3 µM.

On to `CCCCCCCC(=O)NCCCn1cc(/C=C2\SC(=O)N(Cc3ccc(F)cc3)C2=O)c2ccccc21` [Ta5], for which the IC50 was > 100 µM. Same read-out and setting: to `COc1cc2nccc(Oc3ccc(NC(=O)NC4CC4)c(Cl)c3)c2cc1C(N)=O` [Lenvatinib, reference compound] belongs 19.8 ± 1.43 µM. In the case of `CC[C@H](C)[C@H](N)C(=O)NCCCn1cc(/C=C2\S/C(=N\c3ccc(N4CCOCC4)cc3)N(Cc3ccc(F)cc3)C2=O)c2ccccc21` [Tc5], the IC50 is 4.9 µM. Same read-out and setting: in the case of `CC(C)[C@H](N)C(=O)NCCCn1cc(/C=C2\S/C(=N/C3CCCCC3)N(Cc3ccc(F)cc3)C2=O)c2ccccc21` [Tc11] it was 20.9 µM. For the compound `CC(C)CCC(=O)NCCCn1cc(/C=C2\SC(=O)N(Cc3ccc(F)cc3)C2=O)c2ccccc21` [Ta4], the IC50 is > 100 µM.

For `NCCCn1cc(/C=C2\S/C(=N\c3ccc(N4CCOCC4)cc3)N(Cc3ccc(F)cc3)C2=O)c2ccccc21` [Tc1], the IC50 is 5.13 µM. Same read-out and setting: in the case of `COc1ccc2c(c1)c(/C=C1\SC(=O)N(Cc3ccc(F)cc3)C1=O)cn2CCCNC(=O)[C@@H](N)Cc1ccc(O)cc1` [Tb8] it was 6.92 ± 1.21 µM; in that of `CSCC[C@H](N)C(=O)NCCCn1cc(/C=C2\S/C(=N\c3ccc(N4CCOCC4)cc3)N(Cc3ccc(F)cc3)C2=O)c2ccccc21` [Tc2], 8.77 µM. On the same count and under the same terms, in the case of `O=C(NCCCn1cc(/C=C2\SC(=O)N(Cc3ccc(F)cc3)C2=O)c2cc(Br)ccc21)[C@@H]1CCCN1` [Tb4] it was 9.23 µM.

Still in this data set, the particulars now being: read-out: IC50 HepG2; 72 h.
Take `CNC(=O)c1cc(Oc2ccc(NC(=O)Nc3ccc(Cl)c(C(F)(F)F)c3)cc2)ccn1` [Sorafenib, reference compound]: the IC50 is 6.06 µM.

These data come from publication PMC11729550, “Discovery of indole analogue Tc3 as a potent pyroptosis inducer and identification of its combination strategy against hepatic carcinoma” (Theranostics, 2025).
